In article PMC3523284 (Cell metabolism, 2012):

How the values were obtained:
[1] = molecular target: Mss51 (Saccharomyces cerevisiae, UniProt P32335, C85S); assay: difference UV-visible spectroscopy titration; format: binding
[2] = molecular target: T1, Mss51 (Saccharomyces cerevisiae, UniProt P32335); assay: difference UV-visible spectroscopy titration; format: binding
T1 sequence (P32335 1-436): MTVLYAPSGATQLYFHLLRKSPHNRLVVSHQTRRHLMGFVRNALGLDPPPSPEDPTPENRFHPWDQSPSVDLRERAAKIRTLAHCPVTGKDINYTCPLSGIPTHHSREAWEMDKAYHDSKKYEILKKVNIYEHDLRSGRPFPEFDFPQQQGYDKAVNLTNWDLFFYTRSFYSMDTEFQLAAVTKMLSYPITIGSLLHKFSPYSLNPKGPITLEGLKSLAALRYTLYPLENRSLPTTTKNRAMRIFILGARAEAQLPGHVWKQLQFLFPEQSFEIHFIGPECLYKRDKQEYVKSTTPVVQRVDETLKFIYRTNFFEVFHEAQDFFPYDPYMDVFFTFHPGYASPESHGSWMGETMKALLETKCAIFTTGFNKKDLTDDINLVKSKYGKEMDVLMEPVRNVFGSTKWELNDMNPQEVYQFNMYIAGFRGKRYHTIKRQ

Mss51 (Saccharomyces cerevisiae, UniProt P32335, C85S), sequence (P32335 whole entry C85S): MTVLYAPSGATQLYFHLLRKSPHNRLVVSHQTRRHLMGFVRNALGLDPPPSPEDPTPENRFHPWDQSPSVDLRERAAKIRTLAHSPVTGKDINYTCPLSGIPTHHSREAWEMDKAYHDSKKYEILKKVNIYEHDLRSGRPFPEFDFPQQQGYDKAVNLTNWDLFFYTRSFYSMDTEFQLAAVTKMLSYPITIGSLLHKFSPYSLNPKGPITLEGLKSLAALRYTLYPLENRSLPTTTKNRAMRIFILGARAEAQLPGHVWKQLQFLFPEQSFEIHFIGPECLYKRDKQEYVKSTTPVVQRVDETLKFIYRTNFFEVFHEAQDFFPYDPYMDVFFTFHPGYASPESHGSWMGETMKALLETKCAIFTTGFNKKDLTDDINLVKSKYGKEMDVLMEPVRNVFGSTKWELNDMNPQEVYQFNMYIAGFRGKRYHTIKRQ

## C=CC1=C(C)C2=Cc3c(C=C)c(C)c4[n]3[Fe]([Cl])[n]3c(c(C)c(CCC(=O)O)c3=CC3=NC(=C4)C(C)=C3CCC(=O)O)=CC1=N2 [hemin]
[1]
  Kd: 0.324 ± 0.074 µM
[2]
  Kd: ~0.445 µM
